The source of these data is patent US20250100993A1, “2-SUBSTITUTED THIAZOLE HSD17B13 INHIBITORS AND USES THEREOF” (Inipharm, Inc., priority 2022, published 2025).

Broadly, the Ki is a dissociation constant, usually derived from enzyme kinetics or from competition with a known ligand.

Holding throughout (type): biochemical
One test addresses HSD17B2 (Homo sapiens (Human), UniProt P37059). The test can be described thus: HSD17B2 activity via detection of NADH product (NAD-Glo luminescence). To be noted: selectivity for HSD17B13 over HSD17B2. How it is done: The fluorescence based detection assay monitors the conversion of the co-factor NAD^+ to NADH, which occurs coincident with the conversion of estradiol to estrone by HSD17B2. These assays were performed in 384 well plates (Greiner V-shape PP-microplate). The 20 μl reaction volume contained: 0.7 μM estradiol (E2); 6 mM NAD^+ (Sigma); 250 nM HSD17B2 enzyme (Origene; Cat #TP303293); 0.25 M potassium phosphate buffer pH 7.4, 0.75% vehicle (DMSO). Reactions were incubated for 2 hours at 37° C., and the reaction was stopped by freezing the reaction plates at −80° C. Zero time samples were frozen immediately.
The conversion of NAD^+ to NADH was quantitated using NAD-Glo kits (Promega; Cat #G9062) according to the manufacturers' instructions. A volume of 15 μL of enzyme reaction mixture was added to 15 μL of reconstituted Glo reagent, and the plates were incubated for 30 minutes at room temperature. Luminescence was quantitated on a Tecan Spark Reader®. A standard curve of NADH ([…]) in potassium phosphate buffer pH 7.4/1% DMSO was run on each plate.
Activity of the enzyme in the absence of E2 was used to evaluate specificity of conversion. Enzyme activity in the presence of test samples was expressed as a percentage of the uninhibited enzyme in the presence of 1% DMSO vehicle only, and was plotted versus inhibitor concentration. Non-linear regression was performed using a four-parameter logistic model and GraphPad Prism software. All assessments were undertaken in duplicate evaluations.

For another test, the target named is HSD17B14 (Homo sapiens (Human), UniProt Q9BPX1). Kind of test: LC/MS estrone detection assay for HSD17B14 activity (estradiol to estrone). Conditions: selectivity for HSD17B13 over HSD17B14. The protocol: The liquid chromatography/mass spectrometry (LC/MS) estrone detection assay monitors the conversion of estradiol to estrone by HSD17B14. This assay was undertaken in a 96 well plates (Eppendorf deep well), in an 80 μl reaction volume containing: 8 μM of estradiol (E2; Cayman); 4 mM NAD+(Sigma); 120 nM HSD17B14 enzyme (in-house E. coli expressed His-tagged, purified, soluble protein); 1M potassium phosphate buffer pH 7.4, and 1.2% vehicle (DMSO). Reactions were incubated for 2 hours at 37° C. Estradiol (E2) conversion to estrone (E1) was quantitated by LC-MS/MS based analyte detection for E1 using LCMS grade reagents.
HSD17B14, sequence (Q9BPX1 whole entry): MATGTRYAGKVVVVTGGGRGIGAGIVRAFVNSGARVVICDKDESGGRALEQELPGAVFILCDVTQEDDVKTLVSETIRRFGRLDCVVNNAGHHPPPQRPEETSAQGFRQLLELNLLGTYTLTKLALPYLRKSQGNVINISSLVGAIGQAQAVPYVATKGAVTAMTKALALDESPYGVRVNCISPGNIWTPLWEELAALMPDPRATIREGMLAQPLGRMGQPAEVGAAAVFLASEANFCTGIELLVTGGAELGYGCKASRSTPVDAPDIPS
Reactions were terminated by the addition of two volumes of acetonitrile (MeCN; LCMS grade) containing deuterated (D4)-E1 used as internal standard (Clear Synth; 500 ng/mL final concentration). Samples were applied to pre-prepared Bond Elut-C18 extraction cartridges (3 mL; Agilent). The cartridges were washed with 1.5 mL water followed by 1.5 mL 5% aqueous methanol, and dried for 5 minutes under vacuum. They were then eluted with 4.5 mL MeCN. The eluates were dried under nitrogen and re-suspended in 200 μL of 60% methanol (LCMS grade) before submission for analysis. Standard curves of E2 and E1 in 4% DMSO were included for quantification.
Analysis of samples was performed on a XBridge BEH C18 column (Waters) using 0.1% Diethyl Amine in MeCN (mobile phase A) and 0.1% Diethyl Amine in milli-Q water (mobile phase B) in a 3 min gradient from 0-25% B. Analytes were detected in negative mode using MRM analysis, with E2 having a RT of 1.89 min and E1 having a RT of 2.07 min. Activity of the enzyme in the absence of NAD+ was used to evaluate specificity of conversion. Enzyme activity in the presence of test samples was expressed as a percentage of the uninhibited enzyme in the presence of 1.2% DMSO vehicle only, and plotted versus inhibitor concentration. Non-linear regression was performed using a four-parameter logistic model and GraphPad Prism software. All assessments were undertaken in duplicate evaluations, which were pooled during the extraction process and subsequently injected as duplicates for LC-MS/MS analysis.

Another test has as its target HSD17B13 (Homo sapiens (Human), UniProt Q7Z5P4). The test can be described thus: LC/MS estrone detection assay for HSD17B13 activity (estradiol to estrone). Conditions: estradiol substrate, LCMS; read-out: HSD17B13 Inhibition_Estradiol Substrate_LCMS: Ki. The procedure, abridged:
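His-tagged E. coli-expressed enzyme (30 nM) with 4 μM estradiol and 6 mM NAD+ in potassium phosphate pH 7.4, 0.5% DMSO, 2 h at 26.5° C. Estrone formation quantified by LC-MS/MS against D4-estrone standard; activity as % of uninhibited, four-parameter fit, duplicates.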

A value given as a limit tells only on which side of the number the result lay.

HSD17B2, sequence (P37059 whole entry): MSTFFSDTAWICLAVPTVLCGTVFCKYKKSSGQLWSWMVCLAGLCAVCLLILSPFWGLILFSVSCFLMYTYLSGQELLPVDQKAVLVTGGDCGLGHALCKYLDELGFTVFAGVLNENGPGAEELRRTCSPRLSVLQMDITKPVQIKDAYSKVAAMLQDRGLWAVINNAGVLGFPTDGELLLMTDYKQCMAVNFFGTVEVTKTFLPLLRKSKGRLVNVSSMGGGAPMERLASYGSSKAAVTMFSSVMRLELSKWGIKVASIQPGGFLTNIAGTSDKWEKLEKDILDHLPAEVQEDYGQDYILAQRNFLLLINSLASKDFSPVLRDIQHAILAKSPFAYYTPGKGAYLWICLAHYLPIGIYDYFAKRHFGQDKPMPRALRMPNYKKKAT
HSD17B13, sequence (Q7Z5P4 20-300): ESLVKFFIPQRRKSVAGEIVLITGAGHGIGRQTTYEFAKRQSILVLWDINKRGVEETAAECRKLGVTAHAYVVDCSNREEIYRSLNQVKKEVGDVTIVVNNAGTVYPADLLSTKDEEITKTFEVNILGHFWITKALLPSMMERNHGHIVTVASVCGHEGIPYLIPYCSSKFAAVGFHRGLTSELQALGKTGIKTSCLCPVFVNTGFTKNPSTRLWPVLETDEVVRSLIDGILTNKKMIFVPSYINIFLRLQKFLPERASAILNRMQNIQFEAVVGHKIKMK

Compound `O=C(Nc1sc(-c2cccnc2)nc1C(=O)NCc1ccccc1C(F)(F)F)c1cc(Cl)c(O)c(Cl)c1` [Example 61] came in with an HSD17B2 fold selectivity on HSD17B2 of 64 fold. For the same compound, on HSD17B14, the HSD17B14 fold selectivity is given as greater than 397 fold. Moreover, the Ki on HSD17B13 is no more than 50 nM.
For the compound `O=C(Nc1sc(-c2ccccc2)nc1C(=O)NCc1ccccc1C(F)(F)F)c1cc(Cl)c(O)c(Cl)c1` [Example 62], on HSD17B2, the HSD17B2 fold selectivity is reported as 204 fold. The Ki at HSD17B13 is no more than 50 nM.
The matching figures for `O=C(Nc1sc(-c2ccccc2F)nc1C(=O)NCc1ccccc1C(F)(F)F)c1cc(Cl)c(O)c(Cl)c1` [Example 63]: 192 fold and no more than 50 nM.
`O=C(Nc1sc(-c2ccccc2F)nc1C(=O)NCc1ccccc1C(F)(F)F)c1cc(F)c(O)c(Cl)c1` [Example 64] returned an HSD17B2 fold selectivity at HSD17B2 of 115 fold. Moreover, the HSD17B14 fold selectivity on HSD17B14 is given as greater than 855 fold. For the same compound, the Ki at HSD17B13 is no more than 50 nM.
`O=C(Nc1sc(-c2ccccc2Cl)nc1C(=O)NCc1ccccc1C(F)(F)F)c1cc(Cl)c(O)c(Cl)c1` [Example 65] displayed an HSD17B2 fold selectivity at HSD17B2 of 225 fold. Besides, the Ki on HSD17B13 is no more than 50 nM.
In the same order, the values of `Cn1cc(-c2nc(C(=O)NCc3ccccc3C(F)(F)F)c(NC(=O)c3cc(Cl)c(O)c(Cl)n3)s2)cn1` [Example 66] are 36 fold and 50 to 100 nM.
For `O=C(Nc1sc(-c2ccccc2Cl)nc1C(=O)NCc1ccccc1C(F)(F)F)c1cc(Cl)c(O)c(Cl)n1` [Example 67], the HSD17B2 fold selectivity at HSD17B2 came to 513 fold. The Ki on HSD17B13 is no more than 50 nM.
In turn, `O=C(Nc1sc(-c2cncnc2)nc1C(=O)NCc1ccccc1C(F)(F)F)c1cc(Cl)c(O)c(Cl)n1` [Example 68] yielded an HSD17B2 fold selectivity on HSD17B2 of 48 fold. Further, the Ki at HSD17B13 lay within 50 to 100 nM.
The matching figures for `O=C(Nc1sc(-c2ccncc2)nc1C(=O)NCc1ccccc1C(F)(F)F)c1cc(Cl)c(O)c(Cl)n1` [Example 70]: 107 fold and no more than 50 nM.
`CS(=O)(=O)c1ccc(-c2nc(C(=O)NCc3ccccc3C(F)(F)F)c(NC(=O)c3cc(Cl)c(O)c(Cl)n3)s2)cc1` [Example 73] yielded an HSD17B2 fold selectivity at HSD17B2 of 175 fold. For the same compound, the HSD17B14 fold selectivity on HSD17B14 is greater than 646 fold. Moreover, at HSD17B13, the Ki was no more than 50 nM.
In the same order, the values of `O=C(Nc1sc(N2CCS(=O)(=O)CC2)nc1C(=O)NCc1ccccc1C(F)(F)F)c1cc(Cl)c(O)c(Cl)n1` [Example 78, 5-(4,6-dichloro-5-hydroxypicolinamido)-2-(1,1-dioxidothiomorpholino)-N-(2-(trifluoromethyl)benzyl)thiazole-4-carboxamide] are 10 fold, greater than 180 fold and 50 to 100 nM.
For the compound `O=C(Nc1sc(C2=CCCCC2)nc1C(=O)NCc1ccccc1C(F)(F)F)c1cc(Cl)c(O)c(Cl)n1` [Example 88], the HSD17B2 fold selectivity on HSD17B2 was determined as 53 fold. For the same compound, the Ki at HSD17B13 is no more than 50 nM.
`O=C(Nc1sc(-c2cncc(F)c2)nc1C(=O)NCc1ccccc1C(F)(F)F)c1cc(F)c(O)c(Cl)c1` [Example 90] returned an HSD17B2 fold selectivity on HSD17B2 of 107 fold. The compound further yielded an HSD17B14 fold selectivity at HSD17B14 greater than 797 fold. Further, on HSD17B13, the Ki was no more than 50 nM.
`CS(=O)(=O)c1ccccc1-c1nc(C(=O)NCc2ccccc2C(F)(F)F)c(NC(=O)c2cc(Cl)c(O)c(Cl)c2)s1` [Example 91] registered an HSD17B2 fold selectivity on HSD17B2 of 24 fold. This compound showed an HSD17B14 fold selectivity on HSD17B14 of 76 fold. The Ki on HSD17B13 was 50 to 100 nM.
In the same order, the values of `CS(=O)(=O)c1ccccc1-c1nc(C(=O)NCc2ccccc2C(F)(F)F)c(NC(=O)c2cc(Cl)c(O)c(Cl)n2)s1` [Example 92] are 44 fold, greater than 215 fold and 50 to 100 nM.
Turning to `CN(C)Cc1ccc(F)c(-c2nc(C(=O)NCc3ccccc3C(F)(F)F)c(NC(=O)c3cc(F)c(O)c(Cl)c3)s2)c1` [Example 94], at HSD17B2, the HSD17B2 fold selectivity worked out at 1270 fold. The same compound had an HSD17B14 fold selectivity at HSD17B14 greater than 1250 fold. In addition, the Ki at HSD17B13 was no more than 50 nM.
In the case of `N#Cc1cccc(-c2nc(C(=O)NCc3ccccc3C(F)(F)F)c(NC(=O)c3cc(Cl)c(O)c(Cl)c3)s2)c1` [Example 95], the HSD17B2 fold selectivity on HSD17B2 worked out at 2150 fold. Moreover, on HSD17B14, the HSD17B14 fold selectivity is recorded as greater than 1640 fold. Further, the Ki on HSD17B13 is no more than 50 nM.
In the same order, the values of `N#Cc1cccc(-c2nc(C(=O)NCc3ccccc3C(F)(F)F)c(NC(=O)c3cc(F)c(O)c(Cl)c3)s2)c1` [Example 96] are 985 fold, greater than 2000 fold and no more than 50 nM.
Take `CS(=O)(=O)c1ccc(-c2nc(C(=O)NCc3ccccc3C(F)(F)F)c(NC(=O)c3cc(Cl)c(O)c(Cl)c3)s2)cc1` [Example 104]: the HSD17B2 fold selectivity on HSD17B2 was 444 fold. Besides, the HSD17B14 fold selectivity on HSD17B14 is listed as 357 fold. Further, the Ki on HSD17B13 was no more than 50 nM.
